Assay results: patent publication US8946205B2, “1,2,4-triazolo[4,3-a]pyridine derivatives and their use as positive allosteric modulators of mGluR2 receptors” (Janssen Pharmaceuticals, Inc., priority 2009, dated 2015)

Key:
human mGluR2 receptor = biological target: T1, human mGluR2 receptor (Homo sapiens, UniProt Q14416); test: [35S]GTPγS binding assay (PAM assay, membranes from CHO cells transfected with the human mGluR2 receptor); format: biochemical; settings: in presence of glutamate at EC20; pEC50 = -log EC50 (mol/L); read-out: GTPγS-hR2 PAM pEC50 (converted)
T1 construct: expressed in transfected cells; host or cells: CHO cells (membranes)
Experimental: The [^35S]GTPγS binding assay is a functional membrane-based assay used to study G-protein coupled receptor (GPCR) function whereby incorporation of a non-hydrolysable form of GTP, [^35S]GTPγS (guanosine 5′-triphosphate, labelled with […] ^35S), is measured. The G-protein α subunit catalyzes the exchange of guanosine 5′-diphosphate (GDP) by guanosine triphosphate (GTP) and on activation of the GPCR by an agonist, [^35S]GTPγS, becomes incorporated and cannot be cleaved to continue the exchange cycle (Harper (1998) Current Protocols in Pharmacology 2.6.1-10, John Wiley & Sons, Inc.). […] Here we describe the use of the [^35S]GTPγS binding assay using membranes from cells transfected with the human mGluR2 receptor and adapted from Schaffhauser et al. ((2003) Molecular Pharmacology 4:798-810) for the detection of the positive allosteric modulation (PAM) properties of the compounds of this invention.
CHO-cells were cultured to pre-confluence and stimulated with 5 mM butyrate for 24 h, prior to washing in PBS, and then collected by scraping in homogenisation buffer (50 mM Tris-HCl buffer, pH 7.4, 4° C.). Cell lysates were homogenized briefly using an ultra-turrax homogenizer. The homogenate was centrifuged at 16,000 RPM (Sorvall RC-5C plus rotor SS-34) for 10 minutes and the supernatant discarded. The pellet was resuspended in 5 mM Tris-HCl, pH 7.4 and centrifuged again (18,000 RPM, 20 min, 4° C.). The final pellet was resuspended in 50 mM Tris-HCl, pH 7.4 and stored at −80° C. in appropriate aliquots before use. Protein concentration was determined by the Bradford method (Bio-Rad, USA) with bovine serum albumin as standard.
Measurement of mGluR2 positive allosteric modulatory activity of test compounds was performed as follows. Test compounds and glutamate were diluted in assay buffer containing 10 mM HEPES acid, 10 mM HEPES salt, pH 7.4, 100 mM NaCl, 3 mM MgCl2 and 10 μM GDP. Human mGlu2 receptor-containing membranes were thawed on ice and diluted in assay buffer supplemented with 14 μg/ml saponin. Membranes were pre-incubated with compound alone or together with a predefined (˜EC20) concentration of glutamate (PAM assay) for 30 min at 30° C. After addition of [^35S]GTPγS (f.c. 0.1 nM) microplates were shaken briefly and further incubated to allow [^35S]GTPγS incorporation on activation (30 minutes, 30° C.). Final assay mixtures contained 7 μg of membrane protein in 10 mM HEPES acid, 10 mM HEPES salt, pH 7.4, 100 mM NaCl, 3 mM MgCl2,10 μM GDP and 10 μg/ml saponin. Total reaction volume was 200 μl. Reactions were terminated by rapid filtration through Unifilter-96 GF/B filter plates (Packard, Meriden, Conn.) using a 96-well Packard filtermate harvester. Filters were washed 6 times with ice-cold 10 mM NaH2PO4/10 mM Na2HPO4, pH 7.4. Filters were then air-dried, and 40 μl of liquid scintillation cocktail (Microscint-O) was added to each well. Membrane-bound radioactivity was counted in a Microplate Scintillation and Luminescence Counter from Packard.
The concentration-response curves of representative compounds of the present invention—obtained in the presence of EC20 of mGluR2 agonist glutamate to determine positive allosteric modulation (PAM)—were generated using the Lexis software interface (developed at J&J). Data were calculated as % of the control glutamate response, defined as the maximal response that is generated upon addition of glutamate alone. Sigmoid concentration-response curves plotting these percentages versus the log concentration of the test compound were analyzed using non-linear regression analysis. The concentration producing half-maximal effect is then calculated as EC50. The pEC50 values below are calculated as the −log EC50 (wherein EC50 is expressed in mol/L). […]

T1 sequence (Q14416 19-872): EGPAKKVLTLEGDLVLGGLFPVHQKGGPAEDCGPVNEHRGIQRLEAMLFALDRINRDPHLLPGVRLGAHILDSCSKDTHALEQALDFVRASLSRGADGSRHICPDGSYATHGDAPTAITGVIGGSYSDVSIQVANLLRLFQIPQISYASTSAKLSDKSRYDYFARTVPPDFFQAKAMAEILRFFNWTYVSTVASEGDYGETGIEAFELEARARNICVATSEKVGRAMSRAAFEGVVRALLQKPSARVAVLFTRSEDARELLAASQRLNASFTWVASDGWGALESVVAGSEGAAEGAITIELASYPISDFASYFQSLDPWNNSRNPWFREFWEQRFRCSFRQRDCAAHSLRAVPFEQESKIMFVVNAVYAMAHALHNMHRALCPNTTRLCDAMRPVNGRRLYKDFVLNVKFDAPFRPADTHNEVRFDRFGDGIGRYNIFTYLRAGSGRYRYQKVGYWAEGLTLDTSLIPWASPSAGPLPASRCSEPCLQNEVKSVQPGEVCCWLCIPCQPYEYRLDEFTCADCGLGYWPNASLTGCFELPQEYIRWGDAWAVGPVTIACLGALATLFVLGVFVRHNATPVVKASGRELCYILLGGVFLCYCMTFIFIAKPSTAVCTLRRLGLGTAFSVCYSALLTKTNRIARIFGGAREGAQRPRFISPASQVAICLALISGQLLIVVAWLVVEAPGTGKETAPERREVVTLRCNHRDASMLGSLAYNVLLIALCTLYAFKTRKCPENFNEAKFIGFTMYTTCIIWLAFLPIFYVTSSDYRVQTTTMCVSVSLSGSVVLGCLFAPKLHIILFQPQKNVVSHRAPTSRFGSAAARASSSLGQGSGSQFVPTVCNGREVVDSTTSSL

SMILES | EC50 (human mGluR2 receptor) [nM] | melting point [°C]
CCOCc1nnc2c(C)c(-c3ccc4c(ccn4-c4ccc(C)nc4)c3)ccn12 [Compound 49] | 174 | 108.5
FC(F)(F)Cc1nnc2c(Cl)c(-c3ccc4c(ccn4-c4ncccn4)c3)ccn12 [Compound 6] | 33.9 | 
FC(F)(F)c1c(-c2cnc3[nH]ccc3c2)ccn2c(CC3CC3)nnc12 [Compound 24] | 1410 | > 300
Cc1ccc(-n2ccc3cc(-c4ccn5c(CC6CC6)nnc5c4C(F)(F)F)ccc32)cn1 [Compound 36] | 9.33 | 204
Clc1c(-c2ccc3c(ccn3-c3ccncc3)c2)ccn2c(CC3CC3)nnc12 [Compound 44] | 66.1 | > 300
Clc1c(-c2ccc3c(ccn3C3CCOCC3)c2)ccn2c(CC3CC3)nnc12 [Compound 2] | 64.6 | > 300
CCOCc1nnc2c(Cl)c(-c3ccc4c(ccn4-c4ccc(C)nc4)c3)ccn12 [Compound 27] | 56.2 | 188.9
Cc1ccc(-n2ccc3cc(-c4ccn5c(CC6CC6)nnc5c4C(F)(F)F)cc(F)c32)cn1 [Compound 38] | 17 | > 300
Clc1cc(-c2ccn3c(CC4CC4)nnc3c2Cl)cc2cc[nH]c12 [Compound 8] | 25.1 | 233.5
Cc1cc(-n2ccc3cc(-c4ccn5c(CC6CC6)nnc5c4C(F)(F)F)ccc32)ccn1 [Compound 46] | 8.13 | > 300
CCOCc1nnc2c(Cl)c(-c3ccc4c(ccn4-c4ccccn4)c3)ccn12 [Compound 18] | 288 | 235
FC(F)(F)c1c(-c2cnc3c(ccn3CC3CC3)c2)ccn2c(CC3CC3)nnc12 [Compound 25] | 182 | > 300
Clc1c(-c2cnc3c(ccn3CC3CCC3)c2)ccn2c(CC3CC3)nnc12 [Compound 39] | 126 | > 300
CCOCc1nnc2c(C(F)(F)F)c(-c3ccc4[nH]ccc4c3)ccn12 [Compound 33] |  | 200.1
Fc1cc(-c2ccn3c(CC4CC4)nnc3c2Cl)cc2cc[nH]c12 [Compound 28] | 117 | 235.5
FC(F)(F)c1c(-c2ccc3c(ccn3-c3ccncc3)c2)ccn2c(CC3CC3)nnc12 [Compound 43] | 16.6 | > 300
Cc1ccc(-n2ccc3cc(-c4ccn5c(CC6CC6)nnc5c4Cl)ccc32)cn1 [Compound 21, 8-Chloro-3-cyclopropylmethyl-7-[1-(2-methylpyridin-5-yl)-1H-indol-5-yl]-[1,2,4]triazolo[4,3-a]pyridine] | 23.4 | 137.2
O[C@H]1CC[C@H](n2ccc3cc(-c4ccn5c(CC6CC6)nnc5c4Cl)ccc32)CC1 [Compound 10] | 52.5 | > 300
FC(F)(F)c1c(-c2ccc3c(ccn3C3CCOCC3)c2)ccn2c(CC3CC3)nnc12 [Compound 3] | 28.2 | 193.1
CCOCc1nnc2c(C(F)(F)F)c(-c3ccc4c(ccn4-c4cccnc4)c3)ccn12 [Compound 30] | 33.9 | 182.4
Clc1c(-c2cnc3c(ccn3-c3ccccn3)c2)ccn2c(CC3CC3)nnc12 [Compound 41] | 603 | > 300
FC(F)(F)Cc1nnc2c(Cl)c(-c3ccc4c(ccn4-c4ccccn4)c3)ccn12 [Compound 1] | 43.7 | > 300

SMILES | EC50 (human mGluR2 receptor) [nM] | melting point [°C]
CCOCc1nnc2c(Cl)c(-c3ccc4c(ccn4-c4ncccn4)c3)ccn12 [Compound 19] | 126 | 
CCOCc1nnc2c(C(F)(F)F)c(-c3ccc4c(ccn4-c4ccc(C)nc4)c3)ccn12 [Compound 32] | 17.4 | 163.1
Clc1c(-c2cnc3c(ccn3CC3CC3)c2)ccn2c(CC3CC3)nnc12 [Compound 22, 8-Chloro-3-cyclopropylmethyl-7-(1-cyclopropylmethyl-1H-pyrrolo[2,3-b]pyridin-5-yl)-[1,2,4]triazolo[4,3-a]pyridine] | 324 | 184.7
Clc1c(-c2ccc3c(ccn3-c3ncccn3)c2)ccn2c(CC3CC3)nnc12 [Compound 15] | 53.7 | > 300
Fc1cnccc1-n1ccc2cc(-c3ccn4c(CC5CC5)nnc4c3Cl)ccc21 [Compound 42, 8-Chloro-3-cyclopropylmethyl-7-[1-(3-fluoro-pyridin-4-yl)-1H-indol-5-yl]-[1,2,4]triazolo[4,3-a]pyridine] | 28.8 | > 300
FC(F)(F)c1c(-c2cc(Cl)c3[nH]ccc3c2)ccn2c(CC3CC3)nnc12 [Compound 14] | 11 | > 300
Clc1c(-c2ccc3c(ccn3-c3ccccn3)c2)ccn2c(CC3CC3)nnc12 [Compound 16] | 67.6 | 197.1
CCOCc1nnc2c(Cl)c(-c3cc(Cl)c4[nH]ccc4c3)ccn12 [Compound 23] | 95.5 | 
CCOCc1nnc2c(Cl)c(-c3ccc4[nH]ccc4c3)ccn12 [Compound 29] | 1260 | 176.4
Fc1cc(-c2ccn3c(CC4CC4)nnc3c2Cl)cc2ccn(-c3cccnc3)c12 [Compound 48] | 46.8 | 195.6
CCOCc1nnc2c(Cl)c(-c3ccc4c(ccn4-c4cccnc4)c3)ccn12 [Compound 26] | 182 | 233.2
Cc1ccc(-n2ccc3cc(-c4ccn5c(CC6CC6)nnc5c4C4CC4)ccc32)cn1 [Compound 37] | 39.8 | > 300
FC(F)(F)c1c(-c2ccc3c(ccn3-c3cccnc3)c2)ccn2c(CC3CC3)nnc12 [Compound 34] |  | 144.3
Cc1ccc(-n2ccc3cc(-c4ccn5c(CC6CC6)nnc5c4C)ccc32)cn1 [Compound 35, 8-Methyl-3-cyclopropylmethyl-7-[1-(2-methylpyridin-5-yl)-1H-indol-5-yl]-[1,2,4]triazolo[4,3-a]pyridine] | 70.8 | 263.3
Clc1c(-c2ccc3[nH]ccc3c2)ccn2c(CC3CC3)nnc12 [Compound 20] | 251 | > 300
Clc1c(-c2cccc3[nH]ccc23)ccn2c(CC3CC3)nnc12 [Compound 13] | 813 | > 300
Cc1cc(-n2ccc3cc(-c4ccn5c(CC6CC6)nnc5c4Cl)ccc32)ccn1 [Compound 47] | 39.8 | > 300
FC(F)(F)c1c(-c2ccc3c(ccn3-c3ncccn3)c2)ccn2c(CC3CC3)nnc12 [Compound 7] | 11.5 | 
Cc1c(-c2cnc3c(ccn3CC3CC3)c2)ccn2c(CC3CC3)nnc12 [Compound 40] | 407 | > 300
CC(C)(O)Cn1ccc2cc(-c3ccn4c(CC5CC5)nnc4c3Cl)ccc21 [Compound 9] | 158 | 
Clc1c(-c2ccc3nn(Cc4cccnc4)cc3c2)ccn2c(CC3CC3)nnc12 [Compound 11] | 871 | 
